Experiments:
oligodendrocytes [1] = test: Kainate-induced death in cultures enriched with oligodendrocytes, counting of living Gal-C (+) cells; format: cell-based, Wistar rats; settings: 48 hours
Experimental: Oligodendrocytes were obtained from primary glial cultures of spinal cords according to the slightly modified method described by Saneto et al. (Neurochemistry, a Practical Approach, IRL Press, oxford-Washington, D.C., p 27-63 (1987)). Spinal cords from 1-day old Wistar rats were dissected under sterile conditions and separated from the meninges. Five to ten spinal cords were transferred into PBS (phosphate-buffered saline: NaCl 137 mM, KCl 2.68 mM, Na2HPO4 6.45 mM, KH2PO4 1.47 mM) to which 0.25% of trypsin was added. The enzymatic treatment was stopped by addition of Dubelco's modified Eagle's medium (DMEM) to which 10% of fetal bovine serum was added (FBS). Another dissolution step was carried out by means of a 1 ml pipette, and the cell suspension was filtered. The cells were collected by centrifugation and plated at a density of 1.5−2×10^6 cells/25 cm^2 of culture medium in Dubelco's modified Eagle's medium (DMEM) to which 10% of fetal bovine serum was added. After 3 days in vitro, the cultures were fed daily. When a visible monolayer was obtained, the cultures were stirred for 2 hours at 37° C. at 250 rpm, the culture medium was removed, and the flasks were again stirred for 22 hours. The cell-containing medium was incubated at 37° C. in petri dishes for 1 hour in order for the microglia to become attached to the plastic. The oligodendrocytes were collected by centrifugation, plated at a density of 1.6×10^6/cm^2 and maintained in DMEM containing 10% FBS for 1 or 2 days. The medium was then replaced with L15 medium to which sodium bicarbonate (22 mM), conalbumin (0.1 mg/ml), putrescine (0.1 mM), insulin (5 μg/ml), sodium selenite (31 nM), glucose (20 mM), progesterone (21 nM), penicillin (100 IU/ml), streptomycin (100 μg/ml), and horse serum (2%) were added. The oligodendrocytes rapidly differentiated within 24 to 48 hours into a mature and immature phenotype.
(§1) After 48 hours, measured from the start of treatment, the living oligodendrocytes were counted.
The number of Gal-C (+) oligo-dendrocytes were divided for 2 separate counts of the labeled cells in at least 12 fields of 0.63 mm^2 under a 400X microscope. The values were expressed as the number of cells per cm^2 or as the percentage of the control.
The statistical analyses were carried out using the Student's test (t-test).
The cultures of oligodendrocytes were exposed to concentrations of 0.1 to 1 mM kainate for 48 hours.

oligodendrocytes [2] = test: Test 3: protective effect of riluzole on oligodendrocyte death induced by kainate; format: cell-based, Wistar rats; settings: Kainate 1000 alone (no riluzole), 48 hours
Experimental: Oligodendrocytes were obtained from primary glial cultures of spinal cords according to the slightly modified method described by Saneto et al. (Neurochemistry, a Practical Approach, IRL Press, oxford-Washington, D.C., p 27-63 (1987)). Spinal cords from 1-day old Wistar rats were dissected under sterile conditions and separated from the meninges. Five to ten spinal cords were transferred into PBS (phosphate-buffered saline: NaCl 137 mM, KCl 2.68 mM, Na2HPO4 6.45 mM, KH2PO4 1.47 mM) to which 0.25% of trypsin was added. The enzymatic treatment was stopped by addition of Dubelco's modified Eagle's medium (DMEM) to which 10% of fetal bovine serum was added (FBS). Another dissolution step was carried out by means of a 1 ml pipette, and the cell suspension was filtered. The cells were collected by centrifugation and plated at a density of 1.5−2×10^6 cells/25 cm^2 of culture medium in Dubelco's modified Eagle's medium (DMEM) to which 10% of fetal bovine serum was added. After 3 days in vitro, the cultures were fed daily. […]
as §1
The number of Gal-C (+) oligo-dendrocytes were divided for 2 separate counts of the labeled cells in at least 12 fields of 0.63 mm^2 under a 400X microscope. The values were expressed as the number of cells per cm^2 or as the percentage of the control. […]

C=C(C)[C@H]1CN[C@H](C(=O)O)[C@H]1CC(=O)O [Kainate]
Number of oligodendrocytes % relative to the control ± standard deviation (oligodendrocytes [1]; kainate 0.01 mM): 108.2 ± 25.2 % relative to the control
Number of oligodendrocytes % relative to the control ± standard deviation (oligodendrocytes [1]; kainate 0.1 mM): 76.3 ± 27.9 % relative to the control
Number of oligodendrocytes % relative to the control ± standard deviation (oligodendrocytes [1]; kainate 0.5 mM): 25.3 ± 9.3 % relative to the control
Number of oligodendrocytes % relative to the control ± standard deviation (oligodendrocytes [1]; kainate 1 mM): 22.9 ± 7.1 % relative to the control
Induction of death of the oligodendrocytes through apoptosis (oligodendrocytes [1]; kainate at doses of from about 0.1 mM to about 1 mM): strongly induced death of the oligodendrocytes through apoptosis
Number of oligodendrocytes % relative to the control ± standard deviation (oligodendrocytes [2]): 22.9 ± 7.1 % relative to the control

From patent publication US20020037902A1 (priority 2000, published 2002)
